Counter-ions that a name gives are not always drawn.
Columns and labels:
[1] = system: purified Clonostachys compactiuscula esterase; assay type: biochemical; conditions: within 16 h; enzyme 4.0 or 40.0 microgram/ml, simvastatin 10 or 35 mM, pH 7.8 or 9.5, methanol 0-20% v/v (conditions listed in table 1)
Procedure: Clonostachys compactiuscula esterase was purified from 57 g mycelial cells which had been grown up in medium EN using the methods detailed in Examples 1 and 3. The use of a Pharmacia HR 10/10 MONO Q® column allowed the application of 85 mL of crude cell-free extract per purification run. In total 0.89 mg of purified esterase was obtained (in a volume of 10 mL) which was then concentrated to 0.175 mg protein/mL by ultrafiltration using a 10,000 molecular weight cut-off CENTRIPREP® device (AMICON®).
Other conditions which were varied were pH (7.8 and 9.5 were assessed) and methanol concentration (0, 10 and 20% [v/v, final concentration]). The reactions were buffered by the inclusion of either 100 mM TRIS (in the case of reactions carried out at pH 7.8) or 100 mM glycine […]. Greater than 90% hydrolysis of residual lovastatin acid to triol acid was obtained within 16 h under the following conditions: […]

[2] = system: crude homogenate of Clonostachys compactiuscula; assay type: biochemical; conditions: equal volumes of crude homogenate (about 0.5 mg/ml protein) and lovastatin acid ammonium salt 5 g/L, 29° C., within 2 hrs
Procedure: Clonostachys compactiuscula ATCC 38009 was grown in 250 ml shake flasks containing 12 ml of medium EN at 29° C. for 3 days. Lovastatin ammonium salt was added to give a concentration of 2.5 g/L and fermentation was continued for 2 additional days. To prepare the crude homogenate, the culture was harvested by centrifugation at 3000 rpm for 10 minutes, after which it was washed with 50 mM of N-tris(hydroxymethyl)methyl-2-aminoethanesulfonic acid (TES) buffer, pH 7.7. The culture medium was again centrifuged and the cell mass was chilled on ice and then subjected to grinding in a mortar and pestle containing glass fragments and powdered dry ice. The contents of 1 shake flask was resuspended in 2.0 ml of 50 mM TES buffer and centrifuged at 6000 rpm for 10 minutes to remove cell debris and glass fragments. The supernatant was used as the source of crude homogenate with protein concentration of approximately 0.5 mg/ml.
In order to carry out the biotransformation, one volume of crude homogenate was combined with an equal volume of lovastatin acid ammonium salt (5 g/L), and the mixture was incubated at 29° C. Using this method, 80-90% conversion of lovastatin acid to triol acid was observed within 2 hrs.

[3] = system: crude hydrolase (6000 rpm supernatant) of Clonostachys compactiuscula ATCC 38009; conditions: lovastatin 1.4 mM and simvastatin 18.6 mM ammonium salts solution, 50 mM Tris pH 7.8, methanol, 29 C., after 17 h
Procedure: The resulting homogenized, frozen powder was transferred to a suitable tube and the material remaining in the mortar washed into the same tube using a minimal volume of 50 mM Tris, pH 7.8. The mixture was then allowed to thaw and then centrifuged at 6000 rpm for 10 minutes to remove large cell debris and glass.
The 6000 rpm supernatant was used as a crude source of hydrolase and 0.8 mL was mixed with 0.2 mL methanol and 1.0 mL of a solution of simvastatin (18.6 mM and lovastatin (1.4 mM) ammonium salts in 50 MM Tris, pH 7.8.) The reaction mixture was incubated at 29 C. and sampled after 1 h, 2 h, and 17 h by removing 0.1 mL and diluting with 0.9 mL methanol. The samples were then subjected to analysis by HPLC using a Whatman C-8 column as stationary phase and a 60:40 mixture of acetonitrile: 0.5% phosphoric acid as mobile phase; under these conditions the respective retention times for simvastatin, lovastatin and triol ammonium salts are 4.4 min., 3.8 min., and 2.5 min.

[4] = system: purified lovastatin acid hydrolase from Clonostachys compactiuscula; experiment: Km and specific activity of purified hydrolase with lovastatin ammonium salt as substrate; assay type: biochemical; conditions: for specific activity: saturating substrate conditions
Procedure: A hydrolytic enzyme which carries out the biotransformation of lovastatin acid to triol acid was purified by Fast Protein Liquid Chromatography (FPLC*) employing a MONO Q® anion exchange column to near homogeneity from homogenates of Clonostachys compactiuscula employing the procedures described below.
The supernatant from the 6,000 rpm centrifugation as in Example 2 above, but where 50 mM of tris(hydroxymethyl)aminomethane (TRIS) buffer (pH 7.8) is substituted for 50 mM TES buffer, was centrifuged at 15,000 rpm for 20 minutes and the resulting supernatant filtered through a […] filter. Batches (10 mL) of filtrate containing 0.3-0.5 mg/mL protein were then applied at a rate of 1.0-2.0 mL/minute to a Pharmacia MONO Q® (HR 5/5) anion exchange column connected to a Pharmacia Fast Protein Liquid Chromatography (FPLC) system.
(§1) After allowing binding of the anionic proteins to the column matrix, the hydrolase was specifically eluted by the application of a linear gradient of sodium chloride (0-500 mM) in 20 mM TRIS, pH 7.8. […] When the latter substrate was used, the hydrolytic reaction was monitored spectrophotometrically at 410 nm essentially as described by Lawrence, R. C. et al. in J. Gen. Microbiol. (1967) 48, 401-418.
Using the purified enzyme preparation, the biotransformation was carried out in accordance with the procedures described above in Examples 1, 2, 4 and 6, and an estimate was made of the hydrolase's Km and specific activity with lovastatin ammonium salt as substrate. […]
as §1, with “mM).” for “mM) in 20 mM TRIS, pH 7.8.”, “Microbiol. (1967) 48, 401-418.” left out

Compound	hydrolysis of residual lovastatin acid to triol acid [1]	conversion of lovastatin acid to triol acid [2]	conversion of lovastatin (HPLC area percent reduction) [3]	Km ([4]; lovastatin ammonium salt as substrate, purified enzyme preparation) [mM]	specific activity ([4]; Example 3)	specific activity ([4]; Example 4)
CC[C@H](C)C(=O)O[C@H]1C[C@@H](C)C=C2C=C[C@H](C)[C@H](CC[C@@H](O)C[C@@H](O)CC(=O)O)[C@H]21 [lovastatin acid]	Greater than 90%	80-90%				
CC[C@H](C)C(=O)O[C@H]1C[C@@H](C)C=C2C=C[C@H](C)[C@H](CC[C@@H](O)C[C@@H](O)CC(=O)O)[C@H]21 [lovastatin ammonium salt]			greater than 99%	4.14	0.04 mmol lovastatin ammonium salt hydrolyzed/mg protein per minute	0.11 mmol lovastatin ammonium salt/mg protein per hour
